Test results reported in the NIST ThermoML archive (doi:10.1016/j.tca.2005.11.022).
Numbers after ± are expanded uncertainties. Values belong to the compound of their own block, whether it stands above or below them.

What was measured:
[1] = Solid-liquid equilibrium temperature; conditions: 101.3 kPa, Conductivity measurements
[2] = excess molar enthalpy (molar enthalpy of mixing); xn = mol fraction of the nth substance listed; conditions: 505 K, 101 kPa, Liquid, Calvet calorimetry

Solid-liquid equilibrium temperature ([1]; Crystal 1): 488 ± 1 K
SMILES: O=S(=O)([O-])O.[K+] [hydrogen potassium sulfate]

excess molar enthalpy ([2]; x2 = 0.1135): -0.18 ± 0.018 kJ/mol | excess molar enthalpy ([2]; x2 = 0.2137): -0.42 ± 0.042 kJ/mol | excess molar enthalpy ([2]; x2 = 0.4029): -0.527 ± 0.053 kJ/mol | excess molar enthalpy ([2]; x2 = 0.4978): -0.605 ± 0.061 kJ/mol | excess molar enthalpy ([2]; x2 = 0.5883): -0.599 ± 0.06 kJ/mol | excess molar enthalpy ([2]; x2 = 0.7186): -0.514 ± 0.052 kJ/mol | excess molar enthalpy ([2]; x2 = 0.8521): -0.289 ± 0.029 kJ/mol
SMILES: O=S(=O)([O-])O.[Na+] [sulfuric acid, monosodium salt] + O=S(=O)([O-])O.[K+]

Solid-liquid equilibrium temperature ([1]; Crystal): 458 ± 1 K
SMILES: O=S(=O)([O-])O.[Na+] [sulfuric acid, monosodium salt]
